# Biological target: T1, nanoKAZ luciferase (Oplophorus gracilirostris, UniProt Q9GV45, A31E/A60N/A81I/F95D/I117V/K70R/L54V/L99Q/M102K/N193R/P142E/Q151K/Q38R/Q45L/V71I/Y165I)
# T1 construct: luciferase catalytic domain (nanoKAZ, 19 kDa) from the Oplophorus-derived luciferase; host or cells: cell-free: 1-Step Human Coupled IVT Kit, pT7CFE1-based vector
# Test: In vitro bioluminescence screening of imidazo[1,2-a]pyrazin-3(7H)-ones with nanoKAZ expressed in vitro (96-well luminometer, 2 h kinetic)
# Assay type: biochemical
# Conditions: Table 1; furimazine = 1
# Method: General protocol for the generation of solutions of imidazo[1,2-a]pyrazin-3(7H)-one Q by acidic hydrolysis of imidazo[1,2-a]pyrazin-3-yl acetate derivatives P. The considered acetate P (1 mg) was dissolved in DMSO (0.2 mL) and then diluted by adding a solution of acidic ethanol (0.3 ml) made from the addition of 37% hydrochloric acid (100 μl) on 100% ethanol (12 mL). This 0.5 mL solution was incubated at 50° C. for 2 hours to give a stock solution which was then stored at −80° C. […] Nota: these conditions are only adapted to the hydrolysis of the protecting group (as defined above) of the oxygen on position 2 of the imidazo[1,2-a]pyrazine ring system and not to the hydrolysis of any additional acetyl groups eventually present elsewhere on the substrate of this reaction.
# The representative bioluminescence curves shown in the FIG. 2 provided an assessment for furimazine (Q-1), 8-benzyl-2-(furan-2-ylmethyl)-6-(4-hydroxyphenyl)imidazo[1,2-a]pyrazin-3 (7/1)-one (Q-80), 8-(2-fluorobenzyl)-2-(furan-2-ylmethyl)-6-phenylimidazo[1,2-a]pyrazin-3(7H)-one (Q-84), and 8-(2-fluorobenzyl)-2-((5-methylfuran-2-yl)methyl)-6-phenylimidazo[1,2-a]pyrazin-3(7H)-one (Q-85) was obtained using a luciferase expressed in vitro as described in the following. The nanoKAZ DNA template was cloned into Thermo Scientific pT7CFE1-based vector and nanoKAZ was expressed using ThermoFisher Scientific 1-Step Human Coupled IVT Kit—DNA (ref. 88881) according to the manufacturer instructions. The resulting reaction mix was diluted 400 times in buffer (DPBS (Gibco)+0.1% (v/v) Tween 20) and conserved at −80° C. The screening of the imidazo[1,2-a]pyrazin-3(7H)-ones was performed in 96 well plates using 50 μL/well of a 1/20 dilution in DPBS (Gibco)+0.1% (v/v) Tween 20 of the nanoKAZ solution.
# To illustrate the bioluminescence properties improvement achieved for many of the imidazo[1,2-a]pyrazin-3(7H)-ones described here, four values are provided in Table 1: maximum intensity (V1), signal half-life (V2), area under the curve for ten minutes (V3), and area under the curve for two hours (V4), normalized using furimazine (Q-1) as a reference.
# The bioluminescence properties of the tested compounds are considered to be improved when at least one of the values V1-V4 is above 1, and when none of the V1-V4 values is 0.05 or below.
# By following the hydrolysis protocol described above, the following imidazo[1,2-a]pyrazin-3(7H)-ones luciferins Q were made in situ from the corresponding O-protected imidazo[1,2-a]pyrazines P and evaluated for their bioluminescence properties (maximum intensity (V1), signal half-life (V2), area under the curve for […], normalized using furimazine (Q-1) as a reference): […]
# T1 sequence (Q9GV45 other isoform, or with tags, fused parts or gaps with the stated changes): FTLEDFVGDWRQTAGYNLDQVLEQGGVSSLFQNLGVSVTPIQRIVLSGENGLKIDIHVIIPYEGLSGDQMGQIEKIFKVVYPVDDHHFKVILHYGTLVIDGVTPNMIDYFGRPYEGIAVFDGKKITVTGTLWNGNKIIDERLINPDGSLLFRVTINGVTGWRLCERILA
smiles,measurement,value
"CCc1ccc(Cc2nc3c(Cc4ccccc4)[nH]c(-c4ccccc4)cn-3c2=O)o1 [Q-12, 8-benzyl-2-((5-ethylfuran-2-yl)methyl)-6-phenylimidazo[1,2-a]pyrazin-3(7H)-one]","V1: maximum intensity, normalized using furimazine (Q-1) as a reference",2.28
same,"V3: area under the curve for ten minutes, normalized using furimazine (Q-1) as a reference",2.2
same,"V4: area under the curve for two hours, normalized using furimazine (Q-1) as a reference",1.28
"Cc1cccc(Cc2nc3c(Cc4ccccc4)[nH]c(-c4ccccc4)cn-3c2=O)c1 [Q-14, 8-benzyl-2-(3-methylbenzyl)-6-phenylimidazo[1,2-a]pyrazin-3(7H)-one]","V1: maximum intensity, normalized using furimazine (Q-1) as a reference",1.8
same,"V3: area under the curve for ten minutes, normalized using furimazine (Q-1) as a reference",1.66
same,"V4: area under the curve for two hours, normalized using furimazine (Q-1) as a reference",0.96
"Cc1cc(Cc2nc3c(Cc4ccccc4)[nH]c(-c4ccccc4)cn-3c2=O)oc1C [Q-16, 8-benzyl-2-((4,5-dimethylfuran-2-yl)methyl)-6-phenylimidazo[1,2-a]pyrazin-3(7H)-one]","V1: maximum intensity, normalized using furimazine (Q-1) as a reference",2.07
same,"V3: area under the curve for ten minutes, normalized using furimazine (Q-1) as a reference",1.88
same,"V4: area under the curve for two hours, normalized using furimazine (Q-1) as a reference",0.93
"COc1cccc(Cc2nc3c(Cc4ccccc4)[nH]c(-c4ccccc4)cn-3c2=O)c1 [Q-18, 8-benzyl-2-(3-methoxybenzyl)-6-phenylimidazo[1,2-a]pyrazin-3(7H)-one]","V1: maximum intensity, normalized using furimazine (Q-1) as a reference",1.53
same,"V3: area under the curve for ten minutes, normalized using furimazine (Q-1) as a reference",1.41
same,"V4: area under the curve for two hours, normalized using furimazine (Q-1) as a reference",0.97
"O=c1c(Cc2ccccc2)nc2c(Cc3ccccc3)[nH]c(-c3ccccc3F)cn1-2 [Q-20, 2,8-dibenzyl-6-(2-fluorophenyl)imidazo[1,2-a]pyrazin-3(7H)-one]","V1: maximum intensity, normalized using furimazine (Q-1) as a reference",2
same,"V3: area under the curve for ten minutes, normalized using furimazine (Q-1) as a reference",1.59
same,"V4: area under the curve for two hours, normalized using furimazine (Q-1) as a reference",0.66
"O=c1c(Cc2ccco2)nc2c(Cc3ccccc3)[nH]c(-c3ccccc3F)cn1-2 [Q-21, 8-benzyl-6-(2-fluorophenyl)-2-(furan-2-ylmethyl)imidazo[1,2-a]pyrazin-3(7H)-one]","V1: maximum intensity, normalized using furimazine (Q-1) as a reference",1.39
same,"V3: area under the curve for ten minutes, normalized using furimazine (Q-1) as a reference",1.33
same,"V4: area under the curve for two hours, normalized using furimazine (Q-1) as a reference",1.08
"O=c1c(Cc2ccco2)nc2c(Cc3ccccc3)[nH]c(-c3c(F)cccc3F)cn1-2 [Q-27, 8-benzyl-6-(2,6-difluorophenyl)-2-(furan-2-ylmethyl)imidazo[1,2-a]pyrazin-3(7H)-one]","V1: maximum intensity, normalized using furimazine (Q-1) as a reference",1.04
same,"V3: area under the curve for ten minutes, normalized using furimazine (Q-1) as a reference",1.02
same,"V4: area under the curve for two hours, normalized using furimazine (Q-1) as a reference",0.97
"O=c1c(Cc2ccc(C(F)(F)F)o2)nc2c(Cc3ccccc3)[nH]c(-c3ccccc3)cn1-2 [Q-28, 8-benzyl-6-phenyl-2-((5-(trifluoromethyl)furan-2-yl)methyl)imidazo[1,2-a]pyrazin-3(7H)-one]","V1: maximum intensity, normalized using furimazine (Q-1) as a reference",1.31
same,"V3: area under the curve for ten minutes, normalized using furimazine (Q-1) as a reference",1.11
same,"V4: area under the curve for two hours, normalized using furimazine (Q-1) as a reference",0.62
"O=c1c(Cc2ccccc2)nc2c(Cc3ccccc3)[nH]c(-c3c(F)cccc3F)cn1-2 [Q-29, 2,8-dibenzyl-6-(2,6-difluorophenyl)imidazo[1,2-a]pyrazin-3(7H)-one]","V1: maximum intensity, normalized using furimazine (Q-1) as a reference",1.86
same,"V3: area under the curve for ten minutes, normalized using furimazine (Q-1) as a reference",1.48
same,"V4: area under the curve for two hours, normalized using furimazine (Q-1) as a reference",0.55
"Cc1ccc(Cc2nc3c(Cc4ccccc4)[nH]c(-c4ccccc4F)cn-3c2=O)o1 [Q-34, 8-benzyl-6-(2-fluorophenyl)-2-((5-methylfuran-2-yl)methyl)imidazo[1,2-a]pyrazin-3(7H)-one]","V1: maximum intensity, normalized using furimazine (Q-1) as a reference",2.17
same,"V3: area under the curve for ten minutes, normalized using furimazine (Q-1) as a reference",1.89
same,"V4: area under the curve for two hours, normalized using furimazine (Q-1) as a reference",1.13
"O=c1c(Cc2ccc(C3CC3)o2)nc2c(Cc3ccccc3)[nH]c(-c3ccccc3)cn1-2 [Q-36, 8-benzyl-2-((5-cyclopropylfuran-2-yl)methyl)-6-phenylimidazo[1,2-a]pyrazin-3(7H)-one]","V1: maximum intensity, normalized using furimazine (Q-1) as a reference",1.74
same,"V3: area under the curve for ten minutes, normalized using furimazine (Q-1) as a reference",1.64
same,"V4: area under the curve for two hours, normalized using furimazine (Q-1) as a reference",0.83
"O=c1c(Cc2cccc(F)c2)nc2c(Cc3ccccc3)[nH]c(-c3ccccc3)cn1-2 [Q-41, 8-benzyl-2-(3-fluorobenzyl)-6-phenylimidazo[1,2-a]pyrazin-3(7H)-one]","V1: maximum intensity, normalized using furimazine (Q-1) as a reference",1.49
same,"V3: area under the curve for ten minutes, normalized using furimazine (Q-1) as a reference",1.28
same,"V4: area under the curve for two hours, normalized using furimazine (Q-1) as a reference",0.74
"CCc1ccc(Cc2nc3c(Cc4ccccc4)[nH]c(-c4ccccc4F)cn-3c2=O)o1 [Q-51, 8-benzyl-2-((5-ethylfuran-2-yl)methyl)-6-(2-fluorophenyl)imidazo[1,2-a]pyrazin-3(7H)-one]","V1: maximum intensity, normalized using furimazine (Q-1) as a reference",2.59
same,"V3: area under the curve for ten minutes, normalized using furimazine (Q-1) as a reference",2.33
same,"V4: area under the curve for two hours, normalized using furimazine (Q-1) as a reference",1.19
"Cc1ccc(Cc2nc3c(Cc4ccccc4)[nH]c(-c4cccc(F)c4)cn-3c2=O)o1 [Q-54, 8-benzyl-6-(3-fluorophenyl)-2-((5-methylfuran-2-yl)methyl)imidazo[1,2-a]pyrazin-3(7H)-one]","V1: maximum intensity, normalized using furimazine (Q-1) as a reference",2.73
same,"V3: area under the curve for ten minutes, normalized using furimazine (Q-1) as a reference",2.32
same,"V4: area under the curve for two hours, normalized using furimazine (Q-1) as a reference",1.22
"O=c1c(Cc2ccccc2F)nc2c(Cc3ccccc3)[nH]c(-c3ccccc3)cn1-2 [Q-56, 8-benzyl-2-(2-fluorobenzyl)-6-phenylimidazo[1,2-a]pyrazin-3(7H)-one]","V1: maximum intensity, normalized using furimazine (Q-1) as a reference",1.84
same,"V3: area under the curve for ten minutes, normalized using furimazine (Q-1) as a reference",1.51
same,"V4: area under the curve for two hours, normalized using furimazine (Q-1) as a reference",0.7
"CCc1ccc(Cc2nc3c(Cc4ccccc4)[nH]c(-c4ccccc4)cn-3c2=O)s1 [Q-58, 8-benzyl-2-((5-ethylthiophen-2-yl)methyl)-6-phenylimidazo[1,2-a]pyrazin-3(7H)-one]","V1: maximum intensity, normalized using furimazine (Q-1) as a reference",1.71
same,"V3: area under the curve for ten minutes, normalized using furimazine (Q-1) as a reference",1.61
same,"V4: area under the curve for two hours, normalized using furimazine (Q-1) as a reference",0.69
"Cc1cc(Cc2nc3c(Cc4ccccc4)[nH]c(-c4ccccc4F)cn-3c2=O)oc1C [Q-61, 8-benzyl-2-((4,5-dimethylfuran-2-yl)methyl)-6-(2-fluorophenyl)imidazo[1,2-a]pyrazin-3(7H)-one]","V1: maximum intensity, normalized using furimazine (Q-1) as a reference",2.13
same,"V3: area under the curve for ten minutes, normalized using furimazine (Q-1) as a reference",1.97
same,"V4: area under the curve for two hours, normalized using furimazine (Q-1) as a reference",0.78
"O=c1c(Cc2ccccc2)nc2c(Cc3ccccc3F)[nH]c(-c3ccccc3)cn1-2 [Q-72, 2-benzyl-8-(2-fluorobenzyl)-6-phenylimidazo[1,2-a]pyrazin-3(7H)-one]","V1: maximum intensity, normalized using furimazine (Q-1) as a reference",1.49
same,"V3: area under the curve for ten minutes, normalized using furimazine (Q-1) as a reference",1.49
same,"V4: area under the curve for two hours, normalized using furimazine (Q-1) as a reference",0.85

# Reference: patent publication US12612411B1, “Imidazopyrazine derivatives, process for preparation thereof, and their uses as luciferins” (INSTITUT PASTEUR, priority 2017, dated 2026)
